These results are taken from paper PMC10150365 (Journal of Medicinal Chemistry, 2023).

Data set [1] can be described thus: in vitro. Type of data set: in vitro ADME. The conditions noted are these: male, Sprague Dawley, rat, microsomes, pH 7.4; n = 1, fraction unbound assumed 1; read-out: Microsome Clint, rat (RLM).
For a further data set, the system named is SK-OV-3. Briefly: cells. Type of data set: cell-based, human. To be noted: Homo sapiens.
The nature of data set [2]: in vitro. Type of data set: in vitro ADME, mouse. The conditions noted are these: male, CD1, mouse, microsomes, pH 7.4; n = 1, fraction unbound assumed 1; read-out: Microsome Clint, mouse (MLM).
Data set [3] in a line: in vitro. Type of data set: in vitro ADME. To be noted: both sexes, human, microsomes, pH 7.4; n = 1, fraction unbound assumed 1; read-out: Microsome Clint, human (HLM).
Data set [4] can be described thus: physchem. The conditions noted are these: pH 7.4.
Data set [5] is described as follows: physchem. The conditions noted are these: pH 7.4. The source holds these as a separate data set.

Values after ≈ are worked out from the molar mass of the structure shown. Like-named read-outs stand apart in the source and are kept apart here.

A word on the solubility (kinetic): it is the concentration staying in solution when a stock, usually in DMSO, is diluted into the medium. A word on the chromatographic logD: it is lipophilicity estimated from chromatographic retention. For `Cc1ccc(NC(=O)c2ccc3c(c2)OCCO3)cc1NC(=O)c1ccc2nc(CN3CCN(C)CC3)ccc2c1` [Compound 15, N-(5-(2,3-Dihydrobenzo[b][1,4]dioxine-6-carboxamido)-2-methylphenyl)-2-((4-methylpiperazin-1-yl)methyl)quinoline-6-carboxamide], the microsomal CLint in the data set “in vitro [1]” came to 33 µL/min/mg; in “in vitro [2]”, 21 µL/min/mg; in the data set “in vitro [3]”, 33 µL/min/mg. Besides, the GI50 with SK-OV-3 (SK-OV-3, 96 h, read-out: SK-OV-3 pGI50 ± SEM (n) (converted)) is 9.55 nM; in the data set with SK-OV-3 (SK-OV-3, 96 h, CellTiter-Blue, geometric mean, read-out: SK-OV-3 GI50), 9.5 nM. Also, in “physchem [4]”, the kinetic solubility at 2 h, 100 µM came out at 80 µM (≈ 44.1 µg/mL). The compound also returned a chromatographic logD in the data set “physchem [5]” of 1.6.
